Calls of active or inactive are those of the source. The rule behind the calls is not given here.
Assays:
[1] = target: Na(+)/citrate cotransporter (Rattus norvegicus, UniProt Q8CJ44); test: Inhibition of NaCT in rat hepatocytes assessed as [14C]-citrate uptake after 30 mins by scintillation counting method; type: cell-based, Hepatocyte
[2] = Fraction unbound in Wistar Han rat by equilibrium dialysis method; type: ADME
Mus musculus = test: Effect on glucose infusion rate in DIO C57/B6 mouse during hyperinsulinemic-euglycemic clamp at 44 mg/kg/hr for 90 mins; type: functional, organism-based
[3] = target: High affinity choline transporter 1 (Homo sapiens) (UniProt Q9GZV3); test: Inhibition of choline transporter 1 (unknown origin)
[4] = target: Voltage-gated inwardly rectifying potassium channel KCNH2 (Homo sapiens, UniProt Q12809); test: Inhibition of human ERG
[5] = target: Mu-type opioid receptor (Homo sapiens) (UniProt P35372); test: Inhibition of MOP (unknown origin)
Mu-type opioid receptor (Homo sapiens), sequence (P35372 whole entry): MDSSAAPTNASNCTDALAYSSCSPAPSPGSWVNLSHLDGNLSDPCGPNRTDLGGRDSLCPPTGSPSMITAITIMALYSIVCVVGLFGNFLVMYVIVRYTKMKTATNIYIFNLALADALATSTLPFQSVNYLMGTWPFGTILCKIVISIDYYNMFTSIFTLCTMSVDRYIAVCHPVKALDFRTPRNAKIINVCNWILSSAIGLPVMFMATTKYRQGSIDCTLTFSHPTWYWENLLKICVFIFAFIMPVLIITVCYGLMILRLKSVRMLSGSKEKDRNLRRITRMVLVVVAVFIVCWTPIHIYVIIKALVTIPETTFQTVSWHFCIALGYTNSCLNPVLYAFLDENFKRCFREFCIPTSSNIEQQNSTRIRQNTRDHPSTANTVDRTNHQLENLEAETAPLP

Na(+)/citrate cotransporter, sequence (Q8CJ44 whole entry): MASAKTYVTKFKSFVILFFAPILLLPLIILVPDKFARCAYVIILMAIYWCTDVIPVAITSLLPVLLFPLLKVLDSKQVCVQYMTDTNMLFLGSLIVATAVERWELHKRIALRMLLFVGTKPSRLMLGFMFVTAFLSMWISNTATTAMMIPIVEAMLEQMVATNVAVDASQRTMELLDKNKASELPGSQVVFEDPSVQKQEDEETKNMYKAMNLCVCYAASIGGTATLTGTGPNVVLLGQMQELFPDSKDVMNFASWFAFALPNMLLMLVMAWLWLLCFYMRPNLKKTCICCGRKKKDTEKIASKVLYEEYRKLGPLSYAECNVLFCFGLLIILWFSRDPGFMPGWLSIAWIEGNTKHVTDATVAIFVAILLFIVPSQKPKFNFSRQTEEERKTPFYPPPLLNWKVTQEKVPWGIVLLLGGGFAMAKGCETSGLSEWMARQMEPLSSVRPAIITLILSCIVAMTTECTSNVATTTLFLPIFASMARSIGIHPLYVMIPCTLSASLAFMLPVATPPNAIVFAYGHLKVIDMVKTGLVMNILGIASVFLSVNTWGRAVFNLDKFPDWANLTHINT
High affinity choline transporter 1 (Homo sapiens), sequence (Q9GZV3 whole entry): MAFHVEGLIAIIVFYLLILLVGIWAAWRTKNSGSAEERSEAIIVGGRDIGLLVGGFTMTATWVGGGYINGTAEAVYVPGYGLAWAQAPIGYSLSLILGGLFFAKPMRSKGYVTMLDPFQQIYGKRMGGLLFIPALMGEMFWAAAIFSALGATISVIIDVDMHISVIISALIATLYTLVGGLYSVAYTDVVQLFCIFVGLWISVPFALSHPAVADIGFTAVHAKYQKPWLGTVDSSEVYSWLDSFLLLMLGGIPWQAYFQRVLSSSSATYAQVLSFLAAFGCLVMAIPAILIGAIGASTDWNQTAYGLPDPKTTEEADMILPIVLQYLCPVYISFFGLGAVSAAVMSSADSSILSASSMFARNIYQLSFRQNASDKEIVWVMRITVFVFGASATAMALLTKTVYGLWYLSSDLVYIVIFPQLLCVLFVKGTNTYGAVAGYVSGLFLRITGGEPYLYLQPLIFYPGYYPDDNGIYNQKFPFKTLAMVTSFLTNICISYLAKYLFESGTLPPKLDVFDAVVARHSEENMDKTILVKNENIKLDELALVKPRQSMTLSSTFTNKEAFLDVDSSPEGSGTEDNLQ
Voltage-gated inwardly rectifying potassium channel KCNH2, sequence (Q12809 whole entry): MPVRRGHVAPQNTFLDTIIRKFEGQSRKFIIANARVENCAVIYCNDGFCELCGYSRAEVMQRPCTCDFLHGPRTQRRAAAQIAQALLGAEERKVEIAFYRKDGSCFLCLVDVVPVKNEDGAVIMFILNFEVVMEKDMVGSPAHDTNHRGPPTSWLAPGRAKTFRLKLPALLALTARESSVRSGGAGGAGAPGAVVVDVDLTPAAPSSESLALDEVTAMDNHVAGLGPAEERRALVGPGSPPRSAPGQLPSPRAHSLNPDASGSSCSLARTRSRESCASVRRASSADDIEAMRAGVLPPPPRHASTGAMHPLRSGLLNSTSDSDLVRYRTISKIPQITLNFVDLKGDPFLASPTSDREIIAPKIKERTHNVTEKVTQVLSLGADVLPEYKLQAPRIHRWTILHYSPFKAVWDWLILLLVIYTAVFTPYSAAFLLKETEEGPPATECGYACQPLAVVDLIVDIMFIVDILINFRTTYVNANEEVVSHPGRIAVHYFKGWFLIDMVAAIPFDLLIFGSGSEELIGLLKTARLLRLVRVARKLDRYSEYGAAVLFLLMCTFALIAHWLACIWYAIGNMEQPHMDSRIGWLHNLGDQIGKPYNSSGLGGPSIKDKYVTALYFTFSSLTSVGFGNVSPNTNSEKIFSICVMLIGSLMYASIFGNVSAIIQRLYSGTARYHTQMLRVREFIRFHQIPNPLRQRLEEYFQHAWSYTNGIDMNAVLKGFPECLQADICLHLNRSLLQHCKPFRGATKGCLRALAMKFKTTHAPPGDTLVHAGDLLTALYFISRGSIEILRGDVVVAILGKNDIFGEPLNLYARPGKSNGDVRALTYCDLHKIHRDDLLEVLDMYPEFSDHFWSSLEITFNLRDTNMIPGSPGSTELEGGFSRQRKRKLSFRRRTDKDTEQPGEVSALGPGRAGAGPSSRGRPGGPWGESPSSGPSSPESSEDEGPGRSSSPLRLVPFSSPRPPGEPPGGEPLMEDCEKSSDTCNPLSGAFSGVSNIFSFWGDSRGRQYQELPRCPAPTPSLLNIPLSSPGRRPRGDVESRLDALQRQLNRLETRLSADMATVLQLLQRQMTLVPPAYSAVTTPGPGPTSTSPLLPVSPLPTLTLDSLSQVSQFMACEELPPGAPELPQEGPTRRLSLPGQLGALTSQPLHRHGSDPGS

Structure (SMILES): COc1ncc(C)cc1CC[C@@](O)(CC(=O)O)C(=O)O
- IC50 [1]: 120 nM
- fraction unbound [2]: 0.135
- Activity (Mus musculus): inactive
- inhibition [3]: inactive
- inhibition (INH) [4]: Not Active
- inhibition [5]: inactive
